In patent publication US9512178B2, “Neurogenic brain-derived neurotrophic factor peptides” (Research Foundation for Mental Hygiene, Inc., priority 2012, dated 2016):

Key:
[1] = test system: BDNF and TrkB; assay: Induction of BDNF and TrkB expression after pre-treatment with CHX or K252a; assay type: cell-based, mouse; details: 0.1 μM, two days
Procedure: Peptides were dissolved in water in serial dilutions of 10 mM, 1 mM, 100 μM and 10 μM from which the necessary amount was added directly to the culture medium to a final concentration of 0.05 μM, 1 μM, or 10 μM. The BDNF (Peprotech, NJ, USA) was used as a reference in concentrations of 20 ng/ml (0.79 nM) and 100 ng/ml (3.95 nM). Cycloheximide (CHX) (Sigma-Aldrich, St Louis, Mo., USA) was used for blocking protein synthesis. CHX original stock was 100 mg/ml (355.4 mM) in DMSO; from a second stock of 35.54 mM in DMSO, the dilutions were made to the final concentrations of 100 μM. The K252a (CALBIOCHEM/EMD) was used to inhibit the TrkB Receptor. From a stock of 100 μM in DMSO, K252a was diluted to a final working concentration of 200 nM. The E18 primary hippocampal cells were pre-treated with CHX or K252a 1 h prior to the addition of the peptides or BDNF and a time course of these treatments for 15 min, 60 min and 2 days was studied.
To evaluate whether the effect of B-5 and B-3 in induction of the expression of BDNF and TrkB was via the activation of the TrkB receptor and required signal transduction via TrkB and new protein synthesis, mouse embryonic E18 cultured hippocampal cells were pre-treated with the protein synthesis inhibitor, cycloheximide (CHX) or the Trk inhibitor K252a for 1 h, and then added Peptide B-5 at a concentration of 0.1 μM (the dose that gave the maximum induction of BDNF expression, FIGS. 5A and B) or BDNF 20 ng/ml as a positive control (FIG. 7C,D). A time course of these treatments was studied with Peptide B-5 or BDNF for 15 min, 60 min and two days.

[2] = test system: mouse E18 hippocampal neurons; assay: Immunocytochemistry of neuronal markers; assay type: cell-based; details: 1 μM, 5 days, vs vehicle
Procedure: For recovering proteins, cells were seeded in 6-well dishes coated with poly-D-lysine (SigmaAldrich, St. Louis, Mo., USA), 50 μg/ml for an overnight, at a density of 1×10^6 cells/well. For immunocytochemistry, cells were seeded onto 5 mm cover slips coated with poly-D-lysine at a density of 7×10^4 cells/well in 100 μl Defined Medium in 96 well plates. The cells were cultured for four days in vitro prior to the beginning of the treatment with the peptides. The treatment with the peptides was done for five days (starting at DIV 4 and finishing at DIV 9). The culture medium was exchanged completely at the beginning of the treatment with a test peptide (at DIV4), and every 72 h until DIV 9.
After 5 days of treatment, cells seeded on cover slips were fixed in 4% paraformaldehyde (Electron Microscopy Sciences, PA, USA) for 30 min at room temperature, and then washed 2× in PBS for storage at 4° C. prior to staining. Cells were permeabilized in 0.2% Triton-X-100 in PBS for 30 min at 25° C. and incubated in blocking buffer (1% BSA w/v, 0.2% Triton-X-100 v/v in PBS) for 60 min at 25° C. The cells were then incubated with primary antibodies at the appropriate dilutions in blocking buffer at 4° C. for 16 h, washed 3×10 min with 0.2% Triton X100 in PBS, and incubated with fluorescently-labeled secondary antibodies diluted in blocking buffer for 1 h at 25° C. in the dark. Cover slips were washed 3×10 min in 0.2% Triton X-100 in PBS and mounted on glass slides with GelMount (Biomeda, Foster City, Calif., USA). The following primary antibodies were used: rabbit polyclonal anti-GFAP (1:500; Sigma-Aldrich, St. Louis, Mo., USA); rabbit polyclonal anti-NFM (1:200; Chemicon/Millipore, Billerica, Mass., USA); mouse monoclonal anti-NeuN (1:300; Millipore, Billerica, Mass., USA); rabbit polyclonal anti-Tuj-1, 0—III-tubulin (1:800; Covance, Emeryville, Calif., USA); mouse monoclonal SMI 52 to the adult isoforms of MAP-2, MAP2a,b (1:1000; Covance, Emeryville, Calif., USA); rabbit polyclonal anti-synapsin I (1:2000; Stressgen, Farmingdale, N.Y., USA); and rabbit monoclonal anti-PSD95 (1:100; Cell Signaling, Danvers, Mass., USA). Secondary goat anti-mouse and anti-rabbit IgGs conjugated with AlexaFluor 594 were used at 1:1000 (Molecular Probes, Carlsbad, Calif., USA). The nuclei were stained with 1 μM TOPRO in PBS (Invitrogen, Grand Island, N.Y., USA). Mounted cover slips were examined using 40× oil immersion objective of a Nikon 90i fluorescent microscope equipped with Nikon C1 three-laser confocal system and a Nikon DS U1 digital camera, and analyzed with EZ-C1 Viewer Image software, Version 6.0. […]

Ac-I-K-R-G-CONH2 [Peptide B-5]
increase in the expression of BDNF in the presence of CHX ([1]; CHX pre-treatment 1 h): inhibition of the increase
increase in the expression of TrkB in the presence of CHX ([1]; CHX pre-treatment 1 h): inhibition of the increase
induction of the expression of BDNF in cells treated with K252a ([1]; K252a pre-treatment 1 h): no more significant induction
induction of the expression of TrkB in cells treated with K252a ([1]; K252a pre-treatment 1 h): no more significant induction
expression of 0-III-tubulin (immunocytochemistry) [2]: induced an increase
expression of MAP2 (immunocytochemistry) [2]: induced an increase
expression of NFM (immunocytochemistry) [2]: induced an increase
expression of NeuN (immunocytochemistry) [2]: induced an increase
